In patent publication US11834434B2, “Substituted 2-heteroaryloxypyridines and salts thereof and their use as herbicidal agents” (Bayer Aktiengesellschaft, priority 2018, dated 2023):

Columns and labels:
Assay type in all cases: in vivo
[1] = tested on: Echinochloa crus-galli (ECHCG); experiment: Post-emergence herbicidal action against Echinochloa crus-galli; settings: 1280 g/ha; rated visually after about 3 weeks vs untreated controls; 100% = plants have died, 0% = like control plants
Description: (§1) Seeds of mono- and dicotyledonous weed plants were placed in plastic pots in sandy loam soil (doubly sown with in each case one species of mono- or dicotyledonous weed plants per pot), covered with soil and cultivated in a greenhouse under controlled growth conditions. 2 to 3 weeks after sowing, the test plants were treated at the one-leaf stage. The compounds of the invention, formulated in the form of wettable powders (WP) or as emulsion concentrates (EC), were applied onto the green parts of the plants as aqueous suspension or emulsion with addition of 0.5% additive at a water application rate of 600 liters per hectare (converted). After the test plants had been kept in the greenhouse under optimum growth conditions for about 3 weeks, the activity of the preparations was rated visually in comparison to untreated controls. For example, 100% activity=the plants have died, 0% activity=like control plants. Tables B1 to B8 below show the effects of selected compounds of the general formula (I) according to Table 1 on various harmful plants and an application rate corresponding to 1280 g/ha, which were obtained by the experimental procedure mentioned above.

[2] = tested on: Amaranthus retroflexus (AMARE); experiment: Post-emergence herbicidal action against Amaranthus retroflexus; settings: 1280 g/ha; rated visually after about 3 weeks vs untreated controls; 100% = plants have died, 0% = like control plants
Description: as §1

[3] = tested on: Stellaria media (STEME); experiment: Post-emergence herbicidal action against Stellaria media; settings: 1280 g/ha; rated visually after about 3 weeks vs untreated controls; 100% = plants have died, 0% = like control plants
Description: as §1

[4] = tested on: Poa annua (POAAN); experiment: Pre-emergence herbicidal action against Poa annua; settings: 1280 g/ha; scored visually after about 3 weeks vs untreated controls; 100% = plants have died, 0% = like control plants
Excerpt: (§2) Seeds of mono- and dicotyledonous weed plants were placed in plastic pots in sandy loam soil (doubly sown with in each case one species of mono- or dicotyledonous weed plants per pot) and covered with soil. The compounds of the invention, formulated in the form of wettable powders (WP) or as emulsion concentrates (EC), were then applied onto the surface of the covering soil as aqueous suspension or emulsion with addition of 0.5% additive at a water application rate of 600 liters per hectare (converted). After the treatment, the pots were placed in a greenhouse and kept under good growth conditions for the test plants. After about 3 weeks, the effect of the preparations was scored visually in comparison with untreated controls as percentages. For example, 100% activity=the plants have died, 0% activity=like control plants. Tables C1 to C8 below show the effects of selected compounds of the general formula (I) according to Table 1 on various harmful plants and an application rate corresponding to 1280 g/ha, which were obtained by the experimental procedure mentioned above.

[5] = tested on: Setaria viridis (SETVI); experiment: Pre-emergence herbicidal action against Setaria viridis; settings: 1280 g/ha; scored visually after about 3 weeks vs untreated controls; 100% = plants have died, 0% = like control plants
Excerpt: as §2

[6] = tested on: Amaranthus retroflexus (AMARE); experiment: Pre-emergence herbicidal action against Amaranthus retroflexus; settings: 1280 g/ha; scored visually after about 3 weeks vs untreated controls; 100% = plants have died, 0% = like control plants
Excerpt: as §2

[7] = tested on: Stellaria media (STEME); experiment: Pre-emergence herbicidal action against Stellaria media; settings: 1280 g/ha; scored visually after about 3 weeks vs untreated controls; 100% = plants have died, 0% = like control plants
Excerpt: as §2

[8] = tested on: Poa annua (POAAN); experiment: Post-emergence herbicidal action against Poa annua; settings: 1280 g/ha; rated visually after about 3 weeks vs untreated controls; 100% = plants have died, 0% = like control plants
Description: as §1

[9] = tested on: Echinochloa crus-galli (ECHCG); experiment: Pre-emergence herbicidal action against Echinochloa crus-galli; settings: 1280 g/ha; scored visually after about 3 weeks vs untreated controls; 100% = plants have died, 0% = like control plants
Excerpt: as §2

[10] = tested on: Lolium rigidum (LOLRI); experiment: Pre-emergence herbicidal action against Lolium rigidum; settings: 1280 g/ha; scored visually after about 3 weeks vs untreated controls; 100% = plants have died, 0% = like control plants
Excerpt: as §2

[11] = tested on: Abutilon theophrasti (ABUTH); experiment: Pre-emergence herbicidal action against Abutilon theophrasti; settings: 1280 g/ha; scored visually after about 3 weeks vs untreated controls; 100% = plants have died, 0% = like control plants
Excerpt: as §2

[12] = tested on: Matricaria inodora (MATIN); experiment: Pre-emergence herbicidal action against Matricaria inodora; settings: 1280 g/ha; scored visually after about 3 weeks vs untreated controls; 100% = plants have died, 0% = like control plants
Excerpt: as §2

[13] = tested on: Abutilon theophrasti (ABUTH); experiment: Post-emergence herbicidal action against Abutilon theophrasti; settings: 1280 g/ha; rated visually after about 3 weeks vs untreated controls; 100% = plants have died, 0% = like control plants
Description: as §1

SMILES	Post-emergence action against Echinochloa crus-galli (ECHCG) [1] [%]	Post-emergence action against Amaranthus retroflexus (AMARE) [2] [%]	Post-emergence action against Stellaria media (STEME) [3] [%]	Pre-emergence action against Poa annua (POAAN) [4] [%]	Pre-emergence action against Setaria viridis (SETVI) [5] [%]	Pre-emergence action against Amaranthus retroflexus (AMARE) [6] [%]	Pre-emergence action against Stellaria media (STEME) [7] [%]	Post-emergence action against Poa annua (POAAN) [8] [%]	Pre-emergence action against Echinochloa crus-galli (ECHCG) [9] [%]	Pre-emergence action against Lolium rigidum (LOLRI) [10] [%]	Pre-emergence action against Abutilon theophrasti (ABUTH) [11] [%]	Pre-emergence action against Matricaria inodora (MATIN) [12] [%]	Post-emergence action against Abutilon theophrasti (ABUTH) [13] [%]
Fc1cnc(Oc2ncccc2Sc2cccc(Cl)c2)nc1 [Example I-158]	100	100	100	90	90	100	100						
Cc1ccnc(Oc2ncccn2)c1Sc1cccc(Cl)c1 [Example I-212]	100		100	100	100	100	100	100	100	100	100	100	
Cc1ccc(Cc2ccc(F)cc2F)c(Oc2ncc(F)cn2)n1 [Example I-433]		90	100	100	100	100	100	100	100	90	100	100	90
Cc1cc(C)c(Cc2ccc(Cl)cc2)c(Oc2ncc(F)cn2)n1 [Example I-482]		100	100	100	100	100	100	100	100	100	100	100	90
Cc1cc(C)c(Cc2ccc(C)c(F)c2)c(Oc2ncc(F)cn2)n1 [Example I-483]		90	100	100	100	100	100	90	90	90	100	100	90
Cc1cc(C)c(Cc2ccc(Cl)c(F)c2)c(Oc2ncc(F)cn2)n1 [Example I-485]		100	100	100	100	100	100	90	90	90	100	100	90
COc1c(F)ccc(Cc2c(C)cc(C)nc2Oc2ncc(F)cn2)c1F [Example I-488]		100	100	100	100	100	100	90	100	100	100	100	100
Cc1ccc(Oc2ccc(Cl)cc2)c(Oc2ncc(Cl)cn2)n1 [Example I-504]	90	100	100	90	100	100	100	100		90	90	90	
Cc1ccc(Oc2ccccc2)c(Oc2ncc(F)cn2)n1 [Example I-511]		100	100	100	100	100	100	100	100	90	100	100	90
Cc1ccc(Oc2ccc(Cl)cc2)c(Oc2ncc(F)cn2)n1 [Example I-515]	100	100	100	100	100	100	100	100	100	90	100	100	
